Experimental data reported in publication PMC8115384 (Cell, 2021).
Numbering of substitutions follows the chain as printed. Read-outs that look alike come from different tables or passages of the source.

Assays:
[1] = biological target: T1, Full-length zebrafish α1 GlyR (Danio rerio, UniProt O93430); experiment: Whole cell dose-response, FL GlyR; type: cell-based
T1 sequence (O93430 25-444): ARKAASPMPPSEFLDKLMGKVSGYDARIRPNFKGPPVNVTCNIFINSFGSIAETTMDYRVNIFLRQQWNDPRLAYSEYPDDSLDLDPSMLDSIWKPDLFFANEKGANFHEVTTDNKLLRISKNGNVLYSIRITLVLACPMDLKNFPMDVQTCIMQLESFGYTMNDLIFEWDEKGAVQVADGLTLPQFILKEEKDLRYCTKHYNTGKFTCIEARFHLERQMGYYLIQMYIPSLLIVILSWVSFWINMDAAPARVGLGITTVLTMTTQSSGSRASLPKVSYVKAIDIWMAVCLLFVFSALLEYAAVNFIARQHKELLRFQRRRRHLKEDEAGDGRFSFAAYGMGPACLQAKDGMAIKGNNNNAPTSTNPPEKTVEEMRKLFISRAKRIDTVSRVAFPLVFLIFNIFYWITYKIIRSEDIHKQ

[2] = biological target: T2, F175Y/Y177F variant (YGF) of zebrafish α1 GlyR (Danio rerio, UniProt O93430, F183Y/Y185F); experiment: Cell-attached single-channel recording, cluster open probability, YGF mutant; type: cell-based; settings: HEK293A cells, single-channel clusters, 100 mM GABA
T2 sequence (O93430 25-444 F183Y/Y185F): T1 sequence (O93430 25-444) with F159Y, Y161F

[3] = biological target: T1, Full-length zebrafish α1 GlyR; experiment: Macroscopic currents in outside-out patches, fast agonist application
[4] = biological target: T2, F175Y/Y177F variant (YGF) of zebrafish α1 GlyR; experiment: Whole cell dose-response, YGF mutant; type: cell-based; settings: HEK293A, ± SEM, n≥6 cells
[5] = test system: GlyR Ser294 to cysteine mutant; settings: S294C vs wild type; ref Lynch et al., 2001; cited from earlier work
[6] = biological target: T3, FL receptor (full-length zebrafish α1 glycine receptor) (Danio rerio, UniProt O93430); experiment: Ligand binding with 3H-strychnine by SPA, FL receptor in SMA
T3 sequence (O93430 25-444): T1 sequence (O93430 25-444)

[7] = biological target: T4, YGF mutant of zebrafish α1 glycine receptor (Danio rerio, UniProt O93430, F183Y/Y185F); experiment: Ligand binding with 3H-strychnine by SPA, YGF mutant in SMA
T4 sequence (O93430 25-444 F183Y/Y185F): T1 sequence (O93430 25-444) with F159Y, Y161F

[8] = biological target: T5, YYY mutant (F115Y/F175Y/F223Y) of GlyR (Danio rerio, UniProt O93430, F123Y/F183Y/F231Y); experiment: Single-channel open probability, YYY mutant; type: cell-based, zebrafish; settings: 100 mM GABA; similar Po in the YYY mutant as in the FL receptor
T5 sequence (O93430 25-444 F123Y/F183Y/F231Y): T1 sequence (O93430 25-444) with F99Y, F159Y, F207Y

Row | EC50 [1] [mM] | Po [2] [%] | Ki [6] [mM] | Ki [7] [µM] | agonist efficacy (Po) in YYY mutant compared with FL receptor [8] | Compound | EC50 ([1]; FL GlyR, whole cell, HEK293A, -40 mV, ± SEM, n≥6 cells) [mM] | current left at the end of the 1-s pulse, range over patches ([3]; 10 mM glycine, 8 patches) | current left at the end of the 1-s pulse, patch shown ([3]; 10 mM glycine, single outside-out patch of Figure S1A) [%] | current left, % of peak, after 1 s application (desensitization), average ([3]; saturating (10 mM) glycine, outside-out patches, n=8 patches) [%] | EC50 [4] [µM] | increase of glycine EC50 by mutation of Ser294 to cysteine [5]
1 | 1.05 ± 0.08 | 95 ± 5 | – | – | – | NCCS(=O)(=O)O [taurine] | – | – | – | – | – | –
2 | – | – | – | – | – | NCC(=O)O [glycine] | 0.19 ± 0.02 | 17–89% | 17 | 57 ± 8 | 33 ± 3 | ~ 5 fold
3 | 28.4 ± 0.9 | 92 ± 2 | 1.41 ± 0.94 | 180 ± 70 | remained a weak partial agonist | NCCCC(=O)O [GABA, γ-amino butyric acid] | – | – | – | – | – | –
